Assays:
LAT1-Tet/HEK293 cells = assay: Uptake versus LAT1 expression level (Dox-induced) in LAT1-Tet/HEK293 cells; assay type: cell-based; conditions: collection 30 min after treatment
Procedure: Each cell line was seeded in 24 wells at 1 × 10^5 cells/mL and allowed to become sub-confluent on the day of the experiment. Cells were washed with PBS (-) (Fujifilm Wako Pure Chemical, Osaka, Japan) prior to the addition of the compound, which was then replaced with uptake buffer. After treating the cells with the same dose, they were collected at predetermined time points. The cell dose was measured using a γ-counter (Wizard^2 2480; PerkinElmer, Waltham, MA, USA), and the protein content of the sample was determined. Protein content was measured using the BCA method, and the dose was corrected using the protein content (Protein Assay BCA kit, Fujifilm Wako Pure Chemical).
Figure 2 Comparison of uptake between the labeled compounds. (A) Relation between uptake ratio and LAT1 expression level. Uptake ratios were compared between LAT1-Tet/HEK293 cells. The Y-axis represents the uptake ratio, and the X-axis is concentration of Doxycycline (Dox) (TaKaRa Bio, Shiga, Japan). The collection time was 30 min after treatment. The expression of LAT1 increased with increasing amounts of Dox. (B) Comparison of uptake in PANC-1 cell line. The collection times were 0.5, 1, 5 and 10 min after treatment.
The PANC-1 cell line was obtained from the RIKEN Cell Bank and maintained in RPMI 1640 medium (Fujifilm Wako Pure Chemical, Osaka, Japan) supplemented with 10% inactivated fetal bovine serum (Thermo Fisher Scientific, Waltham, MA, USA). Mock/HEK293, LAT1/HEK293, and LAT2/HEK203 cells were kindly provided by Dr. Kanai. Cell lines controlling LAT1 expression were constructed using the Tet-on system. HEK293 cells were obtained from the RIKEN Cell Bank and maintained in E-MEM (Fujifilm Wako Pure Chemical) supplemented with 10% inactivated fetal bovine serum (Thermo Fisher Scientific) and non-essential amino acids (Fujifilm Wako Pure Chemical). The expression vectors were purchased from VectorBuilder, Inc. (Kanagawa, Japan). The purified viral particle genes were transfected into HEK293 cells. Drug selection and cloning of the cell line (Tet-LAT1/HEK293) were performed. […]

PANC-1 tumor model = assay: Tissue distribution in nude mice (PANC-1 tumor model); assay type: in vivo, BALB/c nu/nu mice; conditions: nude mice (PANC-1 tumor model)
Procedure: BALB/c nu/nu mice (male, 5 weeks old) were purchased from Japan SLC (Shizuoka, Japan) and subcutaneously transplanted at a density of 1 × 10^7 cells/mouse. PANC-1 cells that reached the logarithmic growth phase were transplanted subcutaneously by mixing a 1 × 10^8 cells/mL cell suspension with an equivalent volume of Matrigel (Corning, Corning, NY, USA) to obtain 1 × 10^7 cells per mouse. Experiments were performed after the size of the transplanted tumor had exceeded 50 mm^3. The doses in the distribution experiments were as follows: ^211At-AAMT-OH-L (0.501 ± 0.011 MBq/mouse, 19.91 ± 0.59 g, n = 3) and ^211At-AAMT-O-Me-L (0.384 ± 0.003 MBq/mouse, 19.18 ± 0.38 g, n = 6 for Table 3), ^211At-AAMT-O-Me-L (158.10 ± 2.94 kBq/mouse, 19.27 ± 0.64 g, n = 6) and ^211At-AAMT-O-Me-D (135.08 ± 2.35 kBq/mouse, 18.64 ± 0.97 g, n = 6), ^211At-AAMT-O-Et-L (0.682 ± 0.011 MBq/mouse, 20.25 ± 1.41 g, n = 6), ^211At-AAMT-O-Pr-L (0.927 ± 0.020 MBq/mouse, 21.74 ± 0.37 g, n = 6).

[1] = Tissue distribution in ICR mice (normal animals); assay type: in vivo
Text: ICR mice (male, 5 weeks old) were purchased from Japan SLC (Shizuoka, Japan) and acclimated for one week prior to use. The doses in the distribution experiments were as follows: ^211At-AAMT-O-Me-L (0.407 ± 0.005 MBq/mouse, 31.64 ± 0.76 g, n = 6), ^211At-AAMT-O-Me-D (0.351 ± 0.004 MBq/mouse, 31.44 ± 0.94 g, n = 6), ^211At-AAMT-O-Et-L (0.685 ± 0.010 MBq/mouse, 24.14 ± 3.31 g, n = 6), ^211At-AAMT-O-Pr-L (1.09 ± 0.06 MBq/mouse, 26.33 ± 0.39 g, n = 6)

## CCOc1ccc(C[C@](C)(N)C(=O)O)cc1[211At] [^211At-AAMT-O-Et-L]
LAT1-Tet/HEK293 cells
  Uptake ratio versus LAT1 expression (doxycycline concentration): lower cellular uptake when LAT1 expression increased
PANC-1 tumor model; 1 h after injection
  Tissue distribution, Bladder: 15.41 ± 4.39 %ID/g
  Tissue distribution, Blood: 3.63 ± 0.43 %ID/g
  Tissue distribution, Bone: 1.92 ± 0.21 %ID/g
  Tissue distribution, Brain: 0.65 ± 0.11 %ID/g
  Tissue distribution, Cecum: 2.36 ± 0.52 %ID/g
  Tissue distribution, Colon: 3.80 ± 0.50 %ID/g
  Tissue distribution, Heart: 4.41 ± 0.46 %ID/g
  Tissue distribution, Kidney: 6.23 ± 0.94 %ID/g
  Tissue distribution, Liver: 2.54 ± 0.28 %ID/g
  Tissue distribution, Lung: 9.69 ± 1.20 %ID/g
  Tissue distribution, Pancreas: 4.56 ± 0.82 %ID/g
  Tissue distribution, Salivary glands: 13.69 ± 2.13 %ID/g
  Tissue distribution, Small intestine: 4.80 ± 0.63 %ID/g
  Tissue distribution, Spleen: 10.32 ± 4.17 %ID/g
  Tissue distribution, Stomach: 33.25 ± 8.36 %ID/g
  Tissue distribution, Testis: 3.29 ± 0.07 %ID/g
  Tissue distribution, Thyroid: 24.50 ± 4.40 %ID/g
  Tissue distribution, Tumor: 5.64 ± 0.91 %ID/g
PANC-1 tumor model; 3 h after injection
  Tissue distribution, Bladder: 12.03 ± 3.42 %ID/g
  Tissue distribution, Blood: 2.23 ± 0.06 %ID/g
  Tissue distribution, Bone: 1.41 ± 0.16 %ID/g
  Tissue distribution, Brain: 0.36 ± 0.10 %ID/g
  Tissue distribution, Cecum: 2.80 ± 0.56 %ID/g
  Tissue distribution, Colon: 3.63 ± 0.34 %ID/g
  Tissue distribution, Heart: 5.15 ± 0.95 %ID/g
  Tissue distribution, Kidney: 3.74 ± 0.78 %ID/g
  Tissue distribution, Liver: 1.93 ± 0.23 %ID/g
  Tissue distribution, Lung: 10.67 ± 1.28 %ID/g
  Tissue distribution, Pancreas: 2.01 ± 0.20 %ID/g
  Tissue distribution, Salivary glands: 19.70 ± 2.93 %ID/g
  Tissue distribution, Small intestine: 3.23 ± 0.22 %ID/g
  Tissue distribution, Spleen: 13.31 ± 2.43 %ID/g
  Tissue distribution, Stomach: 18.47 ± 2.59 %ID/g
  Tissue distribution, Testis: 3.32 ± 0.33 %ID/g
  Tissue distribution, Thyroid: 31.26 ± 11.36 %ID/g
  Tissue distribution, Tumor: 5.24 ± 1.39 %ID/g
[1]; 1 h after injection
  Tissue distribution, Bladder: 53.22 ± 43.79 %ID/g
  Tissue distribution, Blood: 2.03 ± 0.61 %ID/g
  Tissue distribution, Bone: 0.71 ± 0.32 %ID/g
  Tissue distribution, Brain: 0.37 ± 0.07 %ID/g
  Tissue distribution, Cecum: 0.68 ± 0.25 %ID/g
  Tissue distribution, Colon: 8.32 ± 4.87 %ID/g
  Tissue distribution, Heart: 6.14 ± 3.75 %ID/g
  Tissue distribution, Kidney: 4.70 ± 1.68 %ID/g
  Tissue distribution, Liver: 1.41 ± 0.33 %ID/g
  Tissue distribution, Lung: 4.47 ± 1.34 %ID/g
  Tissue distribution, Pancreas: 7.31 ± 4.45 %ID/g
  Tissue distribution, Salivary glands: 7.08 ± 2.00 %ID/g
  Tissue distribution, Small intestine: 12.85 ± 7.35 %ID/g
  Tissue distribution, Spleen: 2.90 ± 0.95 %ID/g
  Tissue distribution, Stomach: 19.50 ± 5.82 %ID/g
  Tissue distribution, Testis: 2.36 ± 0.28 %ID/g
  Tissue distribution, Thymus: 1.14 ± 0.68 %ID/g
  Tissue distribution, Thyroid: 8.98 ± 4.12 %ID/g
[1]; 3 h after injection
  Tissue distribution, Bladder: 21.28 ± 15.54 %ID/g
  Tissue distribution, Blood: 0.87 ± 0.27 %ID/g
  Tissue distribution, Bone: 1.00 ± 0.18 %ID/g
  Tissue distribution, Brain: 0.13 ± 0.05 %ID/g
  Tissue distribution, Cecum: 1.67 ± 0.24 %ID/g
  Tissue distribution, Colon: 1.75 ± 0.49 %ID/g
  Tissue distribution, Heart: 1.87 ± 0.80 %ID/g
  Tissue distribution, Kidney: 1.56 ± 0.13 %ID/g
  Tissue distribution, Liver: 1.06 ± 0.21 %ID/g
  Tissue distribution, Lung: 4.93 ± 1.95 %ID/g
  Tissue distribution, Pancreas: 1.20 ± 0.40 %ID/g
  Tissue distribution, Salivary glands: 15.05 ± 7.81 %ID/g
  Tissue distribution, Small intestine: 3.21 ± 0.88 %ID/g
  Tissue distribution, Spleen: 2.09 ± 1.08 %ID/g
  Tissue distribution, Stomach: 38.74 ± 10.11 %ID/g
  Tissue distribution, Testis: 1.20 ± 0.36 %ID/g
  Tissue distribution, Thymus: 0.26 ± 0.17 %ID/g
  Tissue distribution, Thyroid: 20.22 ± 6.28 %ID/g

## C[C@](N)(Cc1ccc(O)c([211At])c1)C(=O)O [^211At-AAMT-OH-L, 3-[^211At] Astato-α-methyl-L-tyrosine]
PANC-1 tumor model; 24 h after injection
  Tissue distribution, Bladder: 1.01 ± 0.10 %ID/g
  Tissue distribution, Blood: 0.04 ± 0.02 %ID/g
  Tissue distribution, Bone: 4.29 ± 3.90 %ID/g
  Tissue distribution, Brain: 0.68 ± 0.16 %ID/g
  Tissue distribution, Cecum: 6.60 ± 2.78 %ID/g
  Tissue distribution, Colon: 1.03 ± 0.34 %ID/g
  Tissue distribution, Heart: 2.29 ± 1.20 %ID/g
  Tissue distribution, Kidney: 0.07 ± 0.02 %ID/g
  Tissue distribution, Liver: 1.02 ± 0.60 %ID/g
  Tissue distribution, Lung: 1.90 ± 0.55 %ID/g
  Tissue distribution, Pancreas: 2.39 ± 2.03 %ID/g
  Tissue distribution, Salivary glands: 0.42 ± 0.17 %ID/g
  Tissue distribution, Small intestine: 0.09 ± 0.01 %ID/g
  Tissue distribution, Spleen: 0.72 ± 0.22 %ID/g
  Tissue distribution, Stomach: 1.84 ± 0.81 %ID/g
  Tissue distribution, Testis: 0.57 ± 0.44 %ID/g
  Tissue distribution, Thyroid: 11.65 ± 4.36 %ID/g
  Tissue distribution, Tumor: 0.71 ± 0.46 %ID/g
PANC-1 tumor model; after 24 h
  Amount remaining in cecum relative to ^211At-AAMT-O-Me-L: 3.2 fold
  Amount remaining in femur, including the bone marrow, relative to ^211At-AAMT-O-Me-L: 5.7 fold
  Amount remaining in pancreas relative to ^211At-AAMT-O-Me-L: 4.1 fold
  Amount remaining in thyroid relative to ^211At-AAMT-O-Me-L: 5.2 fold
